This note sets out measurements from patent US20060167229A1, “Biologically active peptide conjugates” (priority 2002, published 2006).

Marks after values point to notes of the source that are not given here. Ends that are not written are not given here.

The test system of assay [1] is B16 melanoma. Description: Melanoma lung metastasis foci after inoculation of B16 melanoma cells. In kind it is in vivo, C57BL/6 mice. As for the experimental part:
Intraperitoneal injection, once per day. […] Treatment of all groups with testing substance lasted for 30 days or until the animal died unless otherwise specified. […] The cell concentration was adjusted to 1×10^5 per ml with Hank's solution and 0.1 ml of the cell suspension was injected via the tail vein into the testing mice to generate the B16 melanoma bearing animal model. Treatment with test substance started as described in section Method 1. […] Postmortem Examination of the Animals was Performed. The Pathological Changes were Recorded, and the Numbers of Melanoma Lung Metastasis Foci Were Counted. Results

Assay [2] deals with Duck Hepatitis B Virus (DHBV). The experiment in a line: Chongqing duck hepatitis B model, serum DHBV DNA by dot-blot hybridization. In kind it is in vivo, Chongqing ducks. On the procedure:
Chongqing duck hepatitis B model was set up and treated with peptides by intraperitoneal injection (50 μg/kg/day, once per day) for 4 weeks. The serum level of DHBV DNA was analyzed by serum dot-blot hybridization. Lamivudine and normal saline treatment was used as positive and negative control respectively. […] It is concluded that CMS001 at suitable dosage level can be used as a part, or on its own, for viral hepatitis infection management. One-day old Chongqing ducks were inoculated with 0.1 ml stock serum positive of Duck Hepatitis B Virus (DHBV) DNA (5×10^7 copy/ml) by intraperitoneal injection. One week later, blood samples were collected from the external jugular vein and infection was confirmed by dot-blot hybridization with DHBV DNA probe labeled with digoxin^[2]. The ducks were breed to 2 weeks old for entrance into the study. […] Treatment lasted for 4 weeks and observation continued for another one week after termination of treatment. 1 ml blood samples were drawn from the external jugular vein of the ducks on days 0, 7, 14, 21, 28, and 35 when treatment started. Sera of the blood samples were isolated immediately^[3] and stored at −20° C. until analysis. 4. Serum DHBV DNA Level Determinations DHBV DNA probe was fluorescent labeled according to the labeling kit protocol from the kit manufacturer (Amersham Pharmacia Biotech Co.). 40 μl duck sera were dot-blotted (1 duplicated dot per sample) onto nitro-cellulose membrane and hybridized with fluorescent-labeled DHBV DNA probe for quantitation^[2]. After completion of hybridization, the blots were developed in CDP-Star fluorimetry reagent RPN3690 and scanned with Vuego Scan (Brisa-620st) scanner. ImageMaster TotalLab v1.11.Ink software was used for quantitative analysis of the blots. Statistical analysis was carried out according to the pair t-test with SPSS software.

The test system of assay [3] is L1210 leukemia. The experiment in a line: Survival of mice with transplanted L1210 leukemia. In kind it is in vivo, DBA/2 mice. As to conditions: for Survival days: saline 16.6 ± 5.6. On the procedure: Intraperitoneal injection, once per day. […] Treatment of all groups with testing substance lasted for 30 days or until the animal died unless otherwise specified.
Stock L1210 cells were incubated in DMEM/F12 medium supplemented with 10% fetal bovine serum, 37° C./5% CO2 for 72 hrs, then washed 3-4 times with Hank's solution, and adjusted to […]. 0.1 ml of the cell suspension was implanted into the abdominal cavity of several healthy DBA mice for 6-8 days. The mice were then killed by cervical vertebra dislocation and their ascitic fluid collected aseptically. The cell concentration of the collected ascitic fluid was adjusted to 1×10^5 per ml with Hank's solution. 0.1 ml of the cell suspension was implanted into each of the testing animal and the survival data of the animals recorded. Treatment started in the testing animals as described in section Method 1. Mean survival day was obtained by the Kaplan-meier method in the Survival option of the SPSS software. If the animal survived longer than the experiment, the survival days was entered as the duration of the experiment. The survival index was calculated according to the following formula: Survival index=(mean survival days of treatment group−mean survival days of control group)÷mean survival days of control group 6. The Effect of Peptides on the Humoral Immunity of C57BL/6 Mice Bearing Transplanted B16 Melanoma and that on the Metastatic Potential of the Inoculated Melanoma Cells

A short description of assay [4]: Body weight of rats on high nutrition diet (over-feeding obesity model). It is filed as in vivo, Sprague-Dawley (SD) rats. On the procedure:
Healthy rats were fed with high nutrition diet for 5 weeks, with or without simultaneous peptide treatment (intramuscular 300 μg/kg/day). Rats on an ordinary diet with saline injection were used as negative control. After 5 weeks of treatment, injection was stopped and the same diet was maintained for another three weeks. Body weight data was collected at once per week interval. Behaviour of the rats was also observed. […] It is concluded that CMS015 at suitable dosage level can reversibly control obesity development induced by over-feeding.
Sprague-Dawley (SD) rats, weighing 145±10 g, were supplied by the Center of Experimental Animal of Guangzhou University of Traditional Chinese Medicine, PR China (certificate No.: 2000A019). Peptides were custom synthesized (of L-amino acids origin) by American Peptide Company, Inc., USA, and were diluted to 10 μg/ml in normal saline. The high and normal nutrition diets were prepared in compliance with the guideline for pre-clinical research of anti-obesity drug, issued by SDA (State Drug Administration), PR China^[1].
Healthy rats were randomized into the experiment, positive control, and negative control groups. 10 rats per group, half male and half female. The experiment group of rats was fed with high nutrition diet for 5 weeks with simultaneous intramuscular injection of 300 μg/kg/day peptide, once per day. Positive control group received the same high nutrition diet but placebo saline injection, while negative control group, used to proof successful establishment of obesity model, received normal nutrition diet and placebo saline injection. After 5 weeks treatment, injection was stopped and the same diet was maintained for another 3 weeks. The rats were weighed at once per week interval. Behaviour of the rats was also observed.
The data were presented as mean±standard deviation. Paired t test or single-factor ANOVA was used for inter and intra group comparison. Statistical significance cut-off was at P≦0.05.

Where [5] appears, read: dose 0.5 μg/kg i.p. once per day.

In the case of IGMESAGIHETTY [CMS016], the “B16 metastatic foci in the lung, postmortem examination” value in assay [1] (5 μg/kg/day) and in assay [1] (500 μg/kg/day) was “did not show any sign of existence of B16 metastatic foci in the lung” in each case.

On to KAVGHLDDLPGAL [CMS008], for which the “B16 metastatic foci in the lung, postmortem examination” value in assay [1] (0.5 μg/kg/day), in assay [1] (5 μg/kg/day) and in assay [1] (50 μg/kg/day) was “did not show any sign of existence of B16 metastatic foci in the lung” in each case.

PTTKTYFPHF [CMS001]: in assay [2] (50 μg/kg/day i.p. for 4 weeks, then one week observation), the “serum DHBV DNA titre upon termination of treatment” value is “rebounded to a value with no statistical difference from that before treatment”. For the same molecule, the “DHBV DNA level (Mean ± Standard Deviation)” value in assay [2] (Day 0 (before treatment), CMS001 50 μg/kg/day i.p., lamivudine 50 mg/kg/day oral, saline 26 ± 12) is on record as 21 ± 18 10^3 units; in assay [2] (Day 7, CMS001 50 μg/kg/day i.p., lamivudine 50 mg/kg/day oral, saline 45 ± 31), 11 ± 13 10^3 units; in assay [2] (Day 14, CMS001 50 μg/kg/day i.p., lamivudine 50 mg/kg/day oral, saline 49 ± 23) it was 20 ± 18 10^3 units; in assay [2] (Day 21, CMS001 50 μg/kg/day i.p., lamivudine 50 mg/kg/day oral, saline 102 ± 66) it was 14 ± 14 10^3 units; in assay [2] (Day 28 (end of 4 weeks treatment), CMS001 50 μg/kg/day i.p., lamivudine 50 mg/kg/day oral, saline 60 ± 38), 5 ± 3* 10^3 units; in assay [2] (Day 35 (one week after termination of treatment), saline 50 ± 43), 18 ± 16 10^3 units.

Take “Phe Val Asn Asp (FVND; listed as Sus scrofa) [CMS035]”: in assay [3] (setting [5]), the “Survival index (%)” value is given as 76.1% and the Survival days is reported as 29.3 ± 15.4 days.

Consider “Pro Ser Ile Vat Gly Arg Pro Arg His Gln Gly Val Met (PSIVGRPRHQGVM; listed as Sus scrofa) [CMS015]”, for which the “difference of the treatment and control groups upon termination of peptide treatment” value in assay [4] (300 μg/kg/day i.m. for 5 weeks, then 3 weeks same diet without injection) is “gradually reduced and became statistically insignificant after three weeks”. The body weight was 129.2 ± 3.3 g in assay [4] (Female n = 5, Pre-treatment, positive control 133.6 ± 4.6); 157.8 ± 8.3 g in assay [4] (Female, Week 1, 300 μg/kg/day i.m., high nutrition diet, positive control 164.4 ± 8.7); 176.0 ± 11.2 g in assay [4] (Female, Week 2, 300 μg/kg/day i.m., high nutrition diet, positive control 188.0 ± 6.4); 196.0 ± 10.5 g in assay [4] (Female, Week 3, 300 μg/kg/day i.m., high nutrition diet, positive control 208.8 ± 8.2); 212.0 ± 13.5 g in assay [4] (Female, Week 4, 300 μg/kg/day i.m., high nutrition diet, positive control 227.2 ± 8.2); 221.4 ± 13.2 g in assay [4] (Female, Week 5, 300 μg/kg/day i.m., high nutrition diet, positive control 236.6 ± 10.9). The body weight in assay [4] (Female, Week 6 (injection stopped after week 5), positive control 249.4 ± 16.3) came out at 235.6 ± 16.3 g; in assay [4] (Female, Week 7 (injection stopped after week 5), positive control 261.2 ± 13.4), 242.2 ± 18.8 g; in assay [4] (Female, Week 8 (injection stopped after week 5), positive control 255.6 ± 11.5), 252.8 ± 22.5 g; in assay [4] (Male n = 5, Pre-treatment, positive control 145.6 ± 13.6), 145.6 ± 8.5 g; in assay [4] (Male, Week 1, 300 μg/kg/day i.m., high nutrition diet, positive control 194.4 ± 14.5), 183.8 ± 10.6 g; in assay [4] (Male, Week 2, 300 μg/kg/day i.m., high nutrition diet, positive control 239.6 ± 13.4), 220.6 ± 12.2 g. Further, the body weight in assay [4] (Male, Week 3, 300 μg/kg/day i.m., high nutrition diet, positive control 265.0 ± 11.8) came out at 239.0 ± 16.0 g; in assay [4] (Male, Week 4, 300 μg/kg/day i.m., high nutrition diet, positive control 287.4 ± 17.7) it was 258.2 ± 18.1 g; in assay [4] (Male, Week 5, 300 μg/kg/day i.m., high nutrition diet, positive control 299.4 ± 21.2) it was 268.8 ± 17.7 g; in assay [4] (Male, Week 6 (injection stopped after week 5), positive control 333.4 ± 27.1), 299.4 ± 21.2 g; in assay [4] (Male, Week 7 (injection stopped after week 5), positive control 349.2 ± 28.9), 310.4 ± 25.9 g; in assay [4] (Male, Week 8 (injection stopped after week 5), positive control 374.4 ± 37.2), 337.4 ± 30.6 g.

Turning to VGMGQKDSY, in assay [3] (setting [5]), the “Survival index (%)” value was 26.8% and the Survival days was 21.1 ± 5.8 days.

B1: IFN-γ: recombinant mouse IFN-γ (rmIFN-γ), Beijing Biotech Inc.; positive control (protein, UniProt P01580 23-155, looked up)
Interferon gamma: HGTVIESLESLNNYFNSSGIDVEEKSLFLDIWRNWQKDGDMKILQSQIISFYLRLFEVLKDNQAISNNISVIESHLITTFFSNSKAKKDAFMSIAKFEVNNPQVQRQAFNELIRVVHQLLPESSLRKRKRSRC
B1 showed a Survival days in assay [3] (controls: IL-2, IFN-γ 3 × 10^5 IU/kg, cyclophosphamide 20 mg/kg) of 15.6 ± 2.2 days.
